Measured values from patent publication US7981448B2, “Methods of treating necrotizing enterocolitis” (University of Pittsburgh, priority 2002, dated 2011).

How the values were obtained:
[1] = system: neonatal rat ileum; experiment: Animal model of necrotizing enterocolitis: gross and microscopic pathology of ileum; assay type: in vivo; conditions: for Gross Changes (n): Bowel wall necrosis / Gross Changes (n): Pneumatosis intestinalis / Microscopic Changes (n): Stromal neutrophils / Microscopic Changes (n): Vacuolization / Microscopic Changes (n): Villous atrophy: day 4 of life
Method: (§1) Pregnant time-dated Sprague-Dawley rats were induced at term using subcutaneous injection of Pitocin (1 U). Immediately after birth (day zero), the neonates were weighed and randomized into two main groups. Animals were either left with their mothers and thus breast-fed, or separated from their mothers, housed in an incubator (Ohio Medical Products, Madison, Wis.), gavage fed with a special rodent formula two times daily, and subjected to 10 minutes of hypoxia (5% O2, 95% N2; PraxAir, Pittsburgh, Pa.) prior to each feeding. The formula consisted of 15 g Similac® 60/40 (Ross Pediatrics, Colombus, Ohio) in 75 mL of Esbilac® canine milk replacement (Pet-Ag Inc., Hampshire, Ill.). Rats from each group were further randomized to receive no additional treatment or one-hour per day CO treatment (250 parts per million; ppm, days 1-3). CO was delivered as described below. The neonatal rats were sacrificed on day four. The intestines were inspected for gross necrotic changes and pneumatosis intestinalis. The last 2 cm of terminal ileum was harvested for morphological studies, and mucosal scrapings were collected for detection of protein.
Animals were exposed to CO at a concentration of 250 ppm. Briefly, 1% CO in air was mixed with air (21% oxygen) in a stainless steel mixing cylinder and then directed into a 3.70 ft^3 glass exposure chamber at a flow rate of 12 L/min. A CO analyzer (Interscan, Chatsworth, Calif.) was used to measure CO levels continuously in the chamber. CO concentrations were maintained at 250 ppm at all times. Rats were placed in the exposure chamber as required.
Intestinal specimens were harvested as described above. Hematoxylin and eosin (H&E) slides were prepared as per standard protocol and examined by light microscopy. The presence of morphological changes in the intestinal epithelium, including separation of the villous core, submucosal edema, and epithelial sloughing, were determined by a pathologist in a blinded fashion.

[2] = system: neonatal rat ileum; experiment: TUNEL staining of ileal whole mounts in the NEC model; assay type: in vivo; conditions: H/F neonatal rats, CO 250 ppm 1 h/day days 1-3, ileum day 4
Method: as §1
(§2) Animals were exposed to CO at a concentration of 250 ppm. Briefly, 1% CO in air was mixed with air (21% oxygen) in a stainless steel mixing cylinder and then directed into a 3.70 ft^3 glass exposure chamber at a flow rate of 12 L/min. […]

[3] = system: TNF-α; experiment: Serum cytokine determination by ELISA (TNF-α); assay type: in vivo, rat; conditions: H/F neonatal rats + CO 250 ppm; 33.2 fold in H/F without CO
Method: as §1, §2

[4] = system: IL-1β; experiment: Serum cytokine determination by ELISA (IL-1β); assay type: in vivo, rat; conditions: H/F neonatal rats + CO 250 ppm; 18.5 fold in H/F without CO
Method: as §1, §2

[5] = system: COX-2; experiment: Western blot of ileal mucosal lysates (COX-2); assay type: in vivo, rat; conditions: H/F neonatal rats + CO, ileal mucosa
Method: as §1, with “The last 2 cm of terminal ileum was harvested for morphological studies, and mucosal scrapings were collected for detection of protein.” left out
(§3) IEC-6 cells or ileal mucosal scrapings were collected in lysis buffer containing 20 mmol/L Tris with 100 μmol/L phenylmethylsulfonylfluoride (Sigma), 1 μmol/L leupeptin (Sigma), and 1 μmol/L sodium orthovanadate (Sigma). Protein was quantified by bicinchoninic acid (BCA) protein assay (Pierce, Rockford, Ill.). […]

[6] = system: IL-1β; experiment: Western blot of ileal mucosal lysates (IL-1β); assay type: in vivo, rat; conditions: H/F neonatal rats + CO, ileal mucosa
Method: as §1, with “The last 2 cm of terminal ileum was harvested for morphological studies, and mucosal scrapings were collected for detection of protein.” left out
as §3

[7] = system: HO-1; experiment: Western blot of ileal mucosal lysates (HO-1); assay type: in vivo, rat; conditions: H/F neonatal rats + CO (data not shown)
Method: as §1, with “The last 2 cm of terminal ileum was harvested for morphological studies, and mucosal scrapings were collected for detection of protein.” left out
as §3

[8] = system: iNOS; experiment: Western blot of ileal mucosal lysates (iNOS); assay type: in vivo, rat; conditions: H/F neonatal rats + CO, ileal mucosa
Method: as §1, with “The last 2 cm of terminal ileum was harvested for morphological studies, and mucosal scrapings were collected for detection of protein.” left out
as §3

[9] = system: nitrosotyrosines; experiment: Western blot of ileal mucosal lysates (protein nitration); assay type: in vivo, rat; conditions: H/F neonatal rats + CO, ileal mucosa
Method: as §1, with “The last 2 cm of terminal ileum was harvested for morphological studies, and mucosal scrapings were collected for detection of protein.” left out
as §3

[10] = system: IEC-6 cells; experiment: TNF-α/Actinomycin D-induced IEC-6 cell death, viability by cellular ATP content; assay type: cell-based, rat; conditions: for TNF-α/ActD-induced IEC-6 cell death (in words): CoPP 16 hours before
Method: FIG. 7 is a bar graph illustrating that CO exposure and induction of HO-1 decreases TNF-α/Actinomycin D (TNF/ActD)-induced IEC-6 cell death. Viability of TNF-α (TNF; 10 ng/ml)/Actinomycin D (ActD; 200 ng/ml)-treated IEC-6 cells was assayed after 18 hours by measuring cellular ATP content. CO treatment (CO; gray bars; 250 ppm) was initiated 1 hour prior to administration of TNF-α/ActD and maintained throughout the duration of the experiment. Cross-hatched bars=cells exposed to cobalt protoporphyrin (CoPP) 16 hours prior to exposure to TNF-α/ActD. Black bars=air exposed cells. […] Results are mean±standard error of 3 independent studies performed in triplicate.
(§4) The rat small-intestinal epithelial cell line IEC-6 was obtained from the American Type Culture Collection (Manassas, Va.). Cells were grown in Dulbecco's modified Eagle's medium with 4.5 g/L glucose (Bio-Whittaker, Walkersville, Md.) supplemented with 5% fetal bovine serum, […] (Gibco, Grand Island, N.Y.), 0.1 U/mL insulin, and 100 U/mL penicillin/100 μg/mL streptomycin at 37° C. and 10% CO2. Cells from passages 3 through 20 were used for experiments.
Cell viability was determined by measuring ATP levels (CellTiter-Glo™; Promega) as per the manufacturer's protocol.
To determine whether HO-1 or CO inhibits cell death in vitro, the rat intestinal epithelial cell line IEC-6 was utilized. Cell death was induced by treating these cells with TNF-α (10 ng/ml) plus actinomycin D (ActD; 200 ng/ml). Cell viability was analyzed by crystal violet staining of adherent cells and assessment of cellular ATP content. TNF-α/ActD decreased IEC-6 cell viability to 24±2.1% that of untreated controls (FIG. 7; P<0.05).

[11] = system: iNOS; experiment: iNOS protein expression in IEC-6 cells by Western blot; assay type: cell-based, rat; conditions: 24 hours, CO 250 ppm from 1 hour before; for Cytokine-induced increase in iNOS protein in IEC-6 cells: CM: TNF-α 10 ng/ml, IL-1β 500 U/ml, IFN-γ 1000 U/ml, CoPP 16 hours before
Method: FIG. 8A is a picture of a Western blot illustrating (at 24 hours) that iNOS protein expression is inhibited in lipopolysaccharide (LPS) and/or hypoxia (1% oxygen) treated IEC-6 cells. CO treatment (250 ppm) was initiated 1 hour before the addition of LPS/hypoxia and maintained throughout the experiment. The combination of LPS (10 or 100 ng/ml) plus hypoxia increased iNOS protein expression, an effect that was inhibited by CO. The presence (+) or absence (−) of each treatment (lipopolysaccharide (lps), hypoxia exposure (hypoxia) and CO exposure (CO)) is indicated beneath each lane of the Western blot.
(§5) FIG. 8C is a picture of a Western blot illustrating that cytokine-induced iNOS protein expression is inhibited in IEC-6 cells by induction of HO-1 or treatment with CO. IEC-6 cells were treated with a cytokine mixture (CM) containing TNF-α (10 ng/ml), IL-1β (500 U/ml), and IFN-γ (1000 U/ml) for 24 hours. CO treatment (250 ppm) was initiated 1 hour prior to administration of CM and maintained throughout the duration of the experiment. Cobalt protoporphyrin (CoPP) was administered 16 hours prior to CM treatment. CM increased IEC-6 cell iNOS protein. Both CO and CoPP inhibited cytokine-induced increase in iNOS protein. The presence (+) or absence (−) of each treatment (cytokine mixture (CM), CO exposure (CO), and cobalt protoporphyrin exposure (CoPP)) is indicated beneath each lane of the Western blot.
The rat small-intestinal epithelial cell line IEC-6 was obtained from the American Type Culture Collection (Manassas, Va.). […]
as §3

[12] = system: rat iNOS promoter; experiment: Rat iNOS promoter-luciferase reporter assay in IEC-6 cells; assay type: cell-based; conditions: IEC-6, LPS 100 ng/ml + 1% oxygen + CO; 4.9±0.3 fold without CO
Method: FIG. 8B is a bar graph illustrating that rat iNOS promoter activity in LPS (100 ng/ml)/hypoxia (1% oxygen; lps/hypoxia)-treated IEC-6 cells is limited by exposure to CO. Cells were assayed for luciferase activity. […] CO limited this transcriptional activation to a 1.7±0.2 fold increase (P<0.05). Results are mean±standard error of 3 independent studies performed in triplicate.
as §4
pGL3/2 rat iNOS promoter-luciferase reporter was constructed as described in Beck et al., FEBS Lett 435:35-38 (1998). IEC-6 cells grown in 35 mm wells were transfected with 4 μL Lipofectamine2000® (Invitrogen), 0.15 μg pGL3/2 DNA and 0.5 μg pIEP-LacZ DNA, which was used as a control for transfection efficiency. Twenty-four hours following transfection, cells were treated for 6 hours, then lysates were collected and a luciferase assay (Promega) was performed with a luminometer (Berthold, Germany).

[13] = system: IEC-6 cells; experiment: Nitrite determination (Griess) in IEC-6 culture medium; assay type: cell-based, rat; conditions: CM stimulation; 17.2±0.9 μM with CM alone, 1.4±0.3 μM unstimulated
Method: as §5
FIG. 8D is a bar graph illustrating that the nitrite levels in supernatantants of IEC-6 cells that are exposed to CM and either CO or CoPP are lower than those of IEC-6 cells exposed to CM and air (as determined by Griess assay). Cytokine stimulation increased nitrite to 17.2±0.9 μM compared to 1.4±0.3 μM in unstimulated controls (P<0.01). […] Black bars=air exposed cells; gray bars=CO exposed cells; and cross-hatched bars=CoPP exposed cells. […]
Nitrite (NO2^−) was measured in the culture medium using the Griess method.

[14] = Breast-fed + CO (250 ppm, 1 h/day, days 1-3), total n=7
[15] = Formula-Fed/Hypoxia + CO (250 ppm, 1 h/day, days 1-3), total n=8
[16] = TNF-α 10 ng/ml + ActD 200 ng/ml, 18 hours, CO 250 ppm from 1 hour before

## [C-]#[O+] [CO, carbon monoxide]
[1]; [14]
  Gross Changes (n): Bowel wall necrosis: 0 n
  Gross Changes (n): Pneumatosis intestinalis: 0 n
  Microscopic Changes (n): Stromal neutrophils: 0 n
  Microscopic Changes (n): Vacuolization: 1 n
  Microscopic Changes (n): Villous atrophy: 0 n
[1]; [15]
  Gross Changes (n): Bowel wall necrosis: 2 n
  Gross Changes (n): Pneumatosis intestinalis: 1 n
  Microscopic Changes (n): Stromal neutrophils: 1 n
  Microscopic Changes (n): Vacuolization: 3 n
  Microscopic Changes (n): Villous atrophy: 2 n
[1]; H/F (hypoxia/formula fed) neonatal rats, CO 250 ppm 1 h/day days 1-3, day 4
  Development of experimental NEC: significantly protected
[1]; breast fed neonatal rats, CO 250 ppm 1 h/day days 1-3, day 4
  Effect on gross or microscopic evaluation: no effect
[2]
  TUNEL staining for cell death: diminished
[3]
  Serum TNF-α increase compared to breast fed controls: 3 fold
[4]
  Serum IL-1β increase compared to breast fed controls: 2.5 fold
[5]
  Ileal COX-2 protein expression: decreased expression
[6]
  Ileal IL-1β protein expression: decreased expression
[7]
  Ileal HO-1 expression: decreased expression
[8]
  Ileal iNOS protein: markedly decreased
[9]
  Ileal nitrosotyrosines (protein nitration): markedly decreased
[10]; CO alone, in vitro
  Effect on viability of IEC-6 cells, agent alone: no measurable effect
[10]; [16]
  TNF-α/ActD-induced IEC-6 cell death (in words): significantly decreased
[10]; TNF-α 10 ng/ml + ActD 200 ng/ml, 18 hours, CO 250 ppm from 1 hour before, 24±2.1% without CO
  IEC-6 cell viability compared to untreated controls: 54±5.6%
[11]
  Cytokine-induced increase in iNOS protein in IEC-6 cells: inhibited
[11]; LPS 10 or 100 ng/ml + 1% oxygen
  LPS/hypoxia-induced iNOS protein in IEC-6 cells: inhibited
[12]
  Transcriptional activation of the iNOS promoter, fold increase: 1.7±0.2 fold
[13]
  Nitrite levels in supernatants of cytokine-stimulated IEC-6 cells: 9.8 ± 0.7 µM

## C=CC1=C(C)c2cc3[n-]c(cc4nc(cc5[n-]c(cc1n2)c(C)c5CCC(=O)[O-])C(CCC(=O)[O-])=C4C)c(C)c3C=C.[Co+2].[H+].[H+] [CoPP, cobalt protoporphyrin, reference compound]
[10]; [16]
  TNF-α/ActD-induced IEC-6 cell death (in words): significantly decreased
[11]
  Cytokine-induced increase in iNOS protein in IEC-6 cells: inhibited
[13]
  Nitrite levels in supernatants of cytokine-stimulated IEC-6 cells: 10.4 ± 1.0 µM
